Experiments:
[1] = system: Meloidogyne javanica; experiment: Mobility of Meloidogyne javanica in the soil microcosm, different carboxylic acids (Example 3); conditions: Fluopyram 24 ppm (positive control), 5 h incubation
Procedure: Juvenile nematodes of M. javanica were deposited on the surface of a column of sterile soil 2 cm thick resting on a sieve (cotton wool), 1 hour before adding the test products in order to allow them time to move in the porosity of the soil. The nematodes will be distributed randomly in the layer of soil, depending on their mobility. […] The mobile nematodes pass through the column of soil and migrate naturally into the water. The nematodes passing into the water can be counted.
If the concentration of test product considered is inhibitory for the mobility of the nematodes in the presence of soil, the nematodes are kept in the column of soil and delayed in their migration into the water. The time for emergence of the nematodes from the column of soil is longer as the concentration of nematostatic product increases.
The method is identical to that described in Example 1. […]

[2] = system: Meloidogyne javanica; experiment: Mobility of Meloidogyne javanica in the soil microcosm (Example 1)
Procedure: The nematodes will be distributed randomly in the layer of soil, depending on their mobility. After adding the test products and incubating for 6 h, the column of soil and the sieve were placed in a tube containing water. The mobile nematodes pass through the column of soil and migrate naturally into the water. The nematodes passing into the water can be counted. If the concentration of test product considered is inhibitory for the mobility of the nematodes in the presence of soil, the nematodes are kept in the column of soil and delayed in their migration into the water. The time for emergence of the nematodes from the column of soil is longer as the concentration of nematostatic product increases.

[3] = calcium formate 780 ppm alone, or with RD2 100 or 1000 ppm, 6 h incubation, kinetics over 144 h

| SMILES | nematodes that had left the microcosm of the soil after 160 hours [1] | nematodes that left the microcosm at 3 days ([2]; at 3 days, calcium formate 780 ppm alone, or calcium formate 780 ppm + RD2 1000 ppm) [%] | nematodes affected reversibly in their mobility [2, 3] [%] | nematodes not affected in their mobility [2, 3] [%] | nematodes affected irreversibly at 6 days ([2]; calcium formate 780 ppm alone, or with RD2 100 or 1000 ppm, at 6 days) [%] |
| --- | --- | --- | --- | --- | --- |
| O=C(NCCc1ncc(C(F)(F)F)cc1Cl)c1ccccc1C(F)(F)F [Fluopyram] | no nematode had left the microcosm | – | – | – | – |
| O=C[O-].O=C[O-].[Ca+2] [calcium formate] | – | 92 | 62 | 14 | 24 |

Source: patent publication US20250275541A1, “NEMATOSTATIC COMPOSITIONS, AND USE THEREOF IN AGRICULTURE” (AGRO INNOVATION INTERNATIONAL, priority 2019, published 2025)
